The numbers were not newly measured in article PMC11185183 (PNAS Nexus, 2024), which cites them from elsewhere.

Molecules are shown by their SMILES.

For the data set, the system named is GC-B.

As for `CN(C)CCN1CCCC(C(=O)Nc2nc3c(F)cc(F)cc3s2)C1` (stereo not shown) [MCUF-651], the “action on GC-B” value is given as “lacked any action”.
